Where two headings read alike, the source gives them in different places.
Key:
Assay type in all cases: in vivo
[1] = tested on: beet armyworm (Spodoptera exigua) larvae; test: Beet armyworm mortality on artificial diet (LAPHEG); conditions: 168 h, read-out: LAPHEG: % mortality against beet armyworm on artificial diet
Method: (§1) The compounds identified in TABLE 2 were prepared using the procedures illustrated in the previous examples and these compounds were tested against beet armyworm, mosquito, fruit fly, and cotton aphid using protocols described after.
(§2) Compounds were evaluated on mosquito (Aedes aegypti) larvae, beet armyworm (Spodoptera exigua) larvae, fruit fly (Drosophila melanogaster) adults and cotton aphid (Aphis gossypi). Newly hatched mosquito larvae (about 50 larvae/well) in 96-well microtiter plates in 230 ul of water containing powdered liver/yeast extract (1 gr/100 ml) were treated with 20 ppm solution of the test compound. Following treatment the plates were covered with a lid and mortality was determined three days after treatment. Beet armyworm eggs (about 5 per well) were placed on artificial diet (in a 96-well microtiter plate) treated with a 4000 ppm solution of a test compound in combination with piperonyl butoxide (in approximate ratio of 1:4). After infestation, the plates were covered with a lid and mortality was determined seven days following treatment. Five-day old fruit fly adults (about 5/well) were placed in deep-well microtiter plates containing 250 ul/well of a 2% agar-10% sucrose mixture that had been treated with a 4000 ppm solution of a test compound. Following infestation, the plates were covered with a lid and mortality was determined three days after treatment. Treatments for the mosquito and armyworm were replicated six times each, that of the fruit fly three times each.

[2] = tested on: fruit fly (Drosophila melanogaster) adults; test: Adult fruit fly mortality on artificial diet (DROSME); conditions: 72 h, read-out: DROSME: % mortality against adult fruit fly on artificial diet
Method: as §1, §2

[3] = tested on: mosquito (Aedes aegypti) larvae; test: Mosquito larvae mortality (AEDSAE); conditions: 72 h, read-out: AEDSAE: % mortality against mosquito larvae
Method: as §1, §2

[4] = tested on: cotton aphid (Aphis gossypi); test: Cotton aphid foliar spray test on squash (CA 200); conditions: 72 h, squash cotyledons, 3 days, Corrected % Control (Abbott), read-out: CA 200: % control against cotton aphid in foliar spray tests
Method: The compounds identified in TABLE 2 were prepared using the procedures illustrated in the previous examples and these compounds were tested against beet armyworm, mosquito, fruit fly, and cotton aphid using protocols described after. […]
Squash with fully expanded cotyledon leaves were trimmed to one cotyledon per plant and infested with cotton aphid (wingless adult and nymph) 1 day prior to chemical application.
Each plant is examined before chemical application to ensure proper infestation (ca. 30-70 aphids per plant). Compounds (3 mg) were dissolved in 3 mL of acetone:methanol (50:50) solvent, forming stock solutions of 1000 ppm. The stock solutions were then diluted with 0.025% Tween 20 (in H2O) to make […]. A hand-held Devilbiss sprayer was used to apply the spray solutions until runoff to both sides of the squash cotyledon leaves. Four plants (4 replications) were used for each concentration of each compound. Reference plants (solvent check) were sprayed with 0.025% Tween 20 only. Treated plants were held in a holding room for 3 days at approximately 23° C. and 40% RH before the number of live aphids on each plant was recorded. Insecticidal activity was measured by Corrected % Control using Abbott's correction formula and presented in TABLE 2: Corrected % Control=100*(X−Y)/X • where X=No. of live aphids on solvent check plants • Y=No. of live aphids on treated plants

[5] = 4000 μg/ml, with piperonyl butoxide (approx. 1:4), mortality seven days after treatment
[6] = 4000 μg/ml, mortality three days after treatment
[7] = 20 μg/ml, mortality three days after treatment

Structure (SMILES): O=C(c1ccccc1)c1ccc(CN2CCN(C(=O)C3CC3)CC2)cc1 [Compound 321]
- mortality at 4000 µg/mL [1, 5]: 1 to 25%
- mortality at 4000 µg/mL [2, 6]: 1 to 25%
- mortality at 20 µg/mL [3, 7]: 1 to 25%

Structure (SMILES): FC(F)(F)Oc1cccc(CN2CCN(CCc3ccccc3)CC2)c1 [Compound 91]
- mortality at 4000 µg/mL [1, 5]: 1 to 25%
- mortality at 4000 µg/mL [2, 6]: 26 to 49%
- mortality at 20 µg/mL [3, 7]: 1 to 25%
- pest or weed control at 200 ppm [4]: 1 to 25%

Structure (SMILES): FC(F)(F)c1ccccc1CCN1CCN(Cc2cc3c(cc2Cl)OCO3)CC1 [Compound 86]
- mortality at 4000 µg/mL [1, 5]: 1 to 25%
- mortality at 4000 µg/mL [2, 6]: 1 to 25%
- mortality at 20 µg/mL [3, 7]: 26 to 49%
- pest or weed control at 200 ppm [4]: 50 to 100%

Structure (SMILES): Clc1cc2c(cc1CN1CCN(CCOc3ccccc3)CC1)OCO2 [Compound 103]
- mortality at 4000 µg/mL [1, 5]: 1 to 25%
- mortality at 4000 µg/mL [2, 6]: 1 to 25%
- mortality at 20 µg/mL [3, 7]: 1 to 25%
- pest or weed control at 200 ppm [4]: 50 to 100%

Structure (SMILES): COc1ccc(CN2CCN(CCc3ccccc3C(F)(F)F)CC2)cc1Cl [Compound 95]
- mortality at 4000 µg/mL [1, 5]: 1 to 25%
- mortality at 4000 µg/mL [2, 6]: 26 to 49%
- mortality at 20 µg/mL [3, 7]: 1 to 25%
- pest or weed control at 200 ppm [4]: 50 to 100%

Structure (SMILES): N#Cc1cccc(CN2CCN(CCc3ccccc3)CC2)c1 [Compound 17, 3-{[4-(2-phenylethyl)piperazin-1-yl]methyl}benzonitrile]
- mortality at 4000 µg/mL [1, 5]: 1 to 25%
- mortality at 4000 µg/mL [2, 6]: 26 to 49%
- mortality at 20 µg/mL [3, 7]: 1 to 25%
- pest or weed control at 200 ppm [4]: 1 to 25%

Structure (SMILES): FC(F)(F)c1ccccc1CCN1CCN(Cc2ccc3c(c2)OCO3)CC1 [Compound 107]
- mortality at 4000 µg/mL [1, 5]: 1 to 25%
- mortality at 4000 µg/mL [2, 6]: 50 to 100%
- mortality at 20 µg/mL [3, 7]: 1 to 25%
- pest or weed control at 200 ppm [4]: 50 to 100%

Structure (SMILES): O=C(OCc1ccccc1)N1CCN(Cc2ccc(Cl)nc2)CC1 [Compound 192]
- mortality at 4000 µg/mL [1, 5]: 1 to 25%
- mortality at 4000 µg/mL [2, 6]: 1 to 25%
- mortality at 20 µg/mL [3, 7]: 1 to 25%

Structure (SMILES): FC(F)(F)c1ccccc1CCN1CCN(Cc2ccccc2Cl)CC1 [Compound 101]
- mortality at 4000 µg/mL [1, 5]: 1 to 25%
- mortality at 4000 µg/mL [2, 6]: 1 to 25%
- mortality at 20 µg/mL [3, 7]: 1 to 25%
- pest or weed control at 200 ppm [4]: 50 to 100%

Structure (SMILES): COc1cc(CN2CCN(CCc3ccccc3C(F)(F)F)CC2)c([N+](=O)[O-])cc1OC [Compound 99]
- mortality at 4000 µg/mL [1, 5]: 1 to 25%
- mortality at 4000 µg/mL [2, 6]: 1 to 25%
- mortality at 20 µg/mL [3, 7]: 1 to 25%
- pest or weed control at 200 ppm [4]: 50 to 100%

Structure (SMILES): O=C(COc1ccccc1)N1CCN(C(=O)OCc2ccccc2)CC1 [Compound 139]
- mortality at 4000 µg/mL [1, 5]: 26 to 49%
- mortality at 4000 µg/mL [2, 6]: 1 to 25%
- mortality at 20 µg/mL [3, 7]: 1 to 25%

Structure (SMILES): O=C(c1ccco1)N1CCN(Cc2ccccc2)CC1 [Compound 34]
- mortality at 4000 µg/mL [1, 5]: 1 to 25%
- mortality at 4000 µg/mL [2, 6]: 1 to 25%
- mortality at 20 µg/mL [3, 7]: 1 to 25%

Structure (SMILES): O=C(c1coc2ccccc12)N1CCN(Cc2ccccc2)CC1 [Compound 50]
- mortality at 4000 µg/mL [1, 5]: 1 to 25%
- mortality at 4000 µg/mL [2, 6]: 1 to 25%
- mortality at 20 µg/mL [3, 7]: 1 to 25%
- pest or weed control at 200 ppm [4]: 50 to 100%

Structure (SMILES): O=C(c1ccc(Cl)cc1)N1CCN(Cc2ccccc2)CC1 [Compound 44]
- mortality at 4000 µg/mL [1, 5]: 1 to 25%
- mortality at 4000 µg/mL [2, 6]: 1 to 25%
- mortality at 20 µg/mL [3, 7]: 1 to 25%
- pest or weed control at 200 ppm [4]: 1 to 25%

Structure (SMILES): O=C(OCc1ccccc1)N1CCN(C(=O)c2ccc3ccccc3n2)CC1 [Compound 159]
- mortality at 4000 µg/mL [1, 5]: 1 to 25%
- mortality at 4000 µg/mL [2, 6]: 1 to 25%
- mortality at 20 µg/mL [3, 7]: 1 to 25%

Structure (SMILES): COc1ccc(CN2CCN(CCc3ccccc3C(F)(F)F)CC2)c(Cl)c1OC [Compound 108]
- mortality at 4000 µg/mL [1, 5]: 1 to 25%
- mortality at 4000 µg/mL [2, 6]: 1 to 25%
- mortality at 20 µg/mL [3, 7]: 1 to 25%
- pest or weed control at 200 ppm [4]: 50 to 100%

Structure (SMILES): FC(F)(F)c1ccccc1CCN1CCN(CC2COc3ccccc3O2)CC1 (stereo not shown) [Compound 100]
- mortality at 4000 µg/mL [1, 5]: 1 to 25%
- mortality at 4000 µg/mL [2, 6]: 26 to 49%
- mortality at 20 µg/mL [3, 7]: 1 to 25%
- pest or weed control at 200 ppm [4]: 50 to 100%

Structure (SMILES): Cc1nn(C)c2sc(C(=O)N3CCN(CCc4ccccc4C(F)(F)F)CC3)cc12 [Compound 160]
- mortality at 4000 µg/mL [1, 5]: 1 to 25%
- mortality at 4000 µg/mL [2, 6]: 1 to 25%
- mortality at 20 µg/mL [3, 7]: 1 to 25%
- pest or weed control at 200 ppm [4]: 1 to 25%

Structure (SMILES): Clc1cc2c(cc1CN1CCN(CCC3CCCCC3)CC1)OCO2 [Compound 102]
- mortality at 4000 µg/mL [1, 5]: 1 to 25%
- mortality at 4000 µg/mL [2, 6]: 1 to 25%
- mortality at 20 µg/mL [3, 7]: 1 to 25%
- pest or weed control at 200 ppm [4]: 50 to 100%

Structure (SMILES): O=C(OCc1ccccc1)N1CCN(C(=O)c2cccs2)CC1 [Compound 146]
- mortality at 4000 µg/mL [1, 5]: 1 to 25%
- mortality at 4000 µg/mL [2, 6]: 1 to 25%
- mortality at 20 µg/mL [3, 7]: 1 to 25%

Structure (SMILES): CC(C)(C)OC(=O)N1CCN(CCc2ccccc2C(F)(F)F)CC1 [Compound 96]
- mortality at 4000 µg/mL [1, 5]: 26 to 49%
- mortality at 4000 µg/mL [2, 6]: 1 to 25%
- mortality at 20 µg/mL [3, 7]: 1 to 25%
- pest or weed control at 200 ppm [4]: 50 to 100%

Structure (SMILES): Cc1nn(C)c2sc(C(=O)N3CCN(C(C)c4ccccc4)CC3)cc12 (stereo not shown) [Compound 162]
- mortality at 4000 µg/mL [1, 5]: 1 to 25%
- mortality at 4000 µg/mL [2, 6]: 26 to 49%
- mortality at 20 µg/mL [3, 7]: 1 to 25%

Structure (SMILES): O=C(c1ccc2ccccc2n1)N1CCN(CCc2ccccc2C(F)(F)F)CC1 [Compound 156]
- mortality at 4000 µg/mL [1, 5]: 1 to 25%
- mortality at 4000 µg/mL [2, 6]: 1 to 25%
- mortality at 20 µg/mL [3, 7]: 1 to 25%
- pest or weed control at 200 ppm [4]: 50 to 100%

Structure (SMILES): FC(F)(F)c1ccc(CN2CCN(CCc3ccccc3C(F)(F)F)CC2)o1 [Compound 87]
- mortality at 4000 µg/mL [1, 5]: 1 to 25%
- mortality at 4000 µg/mL [2, 6]: 1 to 25%
- mortality at 20 µg/mL [3, 7]: 1 to 25%
- pest or weed control at 200 ppm [4]: 26 to 49%

Structure (SMILES): CC(CN1CCN(Cc2cc3c(cc2Cl)OCO3)CC1)c1ccccc1 (stereo not shown) [Compound 333]
- mortality at 4000 µg/mL [1, 5]: 1 to 25%
- mortality at 4000 µg/mL [2, 6]: 50 to 100%
- mortality at 20 µg/mL [3, 7]: 1 to 25%
- pest or weed control at 200 ppm [4]: 50 to 100%

Structure (SMILES): COC(=O)c1cccc(CN2CCN(CCc3ccccc3)CC2)c1 [Compound 90]
- mortality at 4000 µg/mL [1, 5]: 1 to 25%
- mortality at 4000 µg/mL [2, 6]: 26 to 49%
- mortality at 20 µg/mL [3, 7]: 1 to 25%
- pest or weed control at 200 ppm [4]: 50 to 100%

Structure (SMILES): O=C(c1ccc(-c2ccccn2)s1)N1CCN(CCc2ccccc2C(F)(F)F)CC1 [Compound 126]
- mortality at 4000 µg/mL [1, 5]: 1 to 25%
- mortality at 4000 µg/mL [2, 6]: 1 to 25%
- mortality at 20 µg/mL [3, 7]: 1 to 25%
- pest or weed control at 200 ppm [4]: 50 to 100%

Structure (SMILES): Clc1cc2c(cc1CN1CCN(CCc3ccccc3)CC1)OCO2 [Compound 104]
- mortality at 4000 µg/mL [1, 5]: 1 to 25%
- mortality at 4000 µg/mL [2, 6]: 50 to 100%
- mortality at 20 µg/mL [3, 7]: 1 to 25%
- pest or weed control at 200 ppm [4]: 50 to 100%

Structure (SMILES): COC(=O)c1cccc(CN2CCN(CCOc3ccccc3)CC2)c1 [Compound 303]
- mortality at 4000 µg/mL [1, 5]: 1 to 25%
- mortality at 4000 µg/mL [2, 6]: 26 to 49%
- mortality at 20 µg/mL [3, 7]: 1 to 25%

Structure (SMILES): O=C(Cc1ccc(Cl)cc1)N1CCN(Cc2ccccc2)CC1 [Compound 38]
- mortality at 4000 µg/mL [1]: 1 to 25%
- mortality at 4000 µg/mL [2]: 1 to 25%
- mortality at 20 µg/mL [3]: 1 to 25%
- pest or weed control at 200 ppm [4]: 50 to 100%
